Experimental data as given in patent publication US11370798B2 (Vertex Pharmaceuticals Incorporated, priority 2012, dated 2022).
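Note: Test-compound concentration that lowers the Cisplatin IC50 by a set fold.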

Each compound was assayed on HCT116 colorectal cancer cells (assay: Cisplatin sensitization assay (96 h cell viability MTS)). Conditions: compound and Cisplatin added simultaneously, Cisplatin sensitization value.
Assay type: cell-based
Outline: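 Viability read by MTS (1 h at 37° C) after 96 h co-exposure at 37° C, 5% CO2. Test compound and cisplatin were dosed simultaneously in a full concentration matrix, each 2-fold serially diluted from 10 μM final; sensitization values binned in μM.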
In the case of `Nc1nn2cc(F)cnc2c1C(=O)Nc1cncc(Cl)c1N1CCNCC1` [I-N-126, 2-amino-N-(5-chloro-4-(piperazin-1-yl)pyridin-3-yl)-6-fluoropyrazolo[1,5-a]pyrimidine-3-carboxamide], the “Cisplatin Sensitization Assay” value is reported as “+++ (Cisplatin sensitization value of <0.02 μM)”.
In the case of `Nc1nn2cc(F)cnc2c1C(=O)Nc1cnccc1-c1ccc(C(=O)N2CCC(N3CCC3)CC2)nc1` [I-C-54, 2-amino-N-(6-(4-(azetidin-1-yl)piperidine-1-carbonyl)-[3,4′-bipyridin]-3′-yl)-6-fluoropyrazolo[1,5-a]pyrimidine-3-carboxamide], the “Cisplatin Sensitization Assay” value is reported as “+++ (Cisplatin sensitization value of <0.02 μM)”.
With `Cc1cccnc1-c1ccncc1NC(=O)c1c(N)nn2cc(F)cnc12` [I-C-36, 2-amino-6-fluoro-N-(3-methyl-[2,4′-bipyridin]-3′-yl)pyrazolo[1,5-a]pyrimidine-3-carboxamide] the “Cisplatin Sensitization Assay” value was “+++ (Cisplatin sensitization value of <0.02 μM)”.
With `CN1CCC(NC(=O)C2CCN(c3c(F)cncc3NC(=O)c3c(N)nn4cc(F)cnc34)CC2)CC1` [I-G-20, 2-amino-6-fluoro-N-(5-fluoro-4-(4-((1-methylpiperidin-4-yl)carbamoyl)piperidin-1-yl)pyridin-3-yl)pyrazolo[1,5-a]pyrimidine-3-carboxamide] the “Cisplatin Sensitization Assay” value was “+ (Cisplatin sensitization value>0.2 μM but <5 μM)”.
For `CN1CCC(C(=O)N2CCN(c3c(F)cncc3NC(=O)c3c(N)nn4cc(F)cnc34)CC2)C1` (centres unmarked) [I-N-156, 2-amino-6-fluoro-N-(5-fluoro-4-(4-(1-methylpyrrolidine-3-carbonyl)piperazin-1-yl)pyridin-3-yl)pyrazolo[1,5-a]pyrimidine-3-carboxamide], the “Cisplatin Sensitization Assay” value was “+++ (Cisplatin sensitization value of <0.02 μM)”.
For `CN1CCN(C2CCN(c3ccncc3NC(=O)c3c(N)nn4cc(Cl)cnc34)CC2)CC1` [I-N-97, 2-amino-6-chloro-N-(4-(4-(4-methylpiperazin-1-yl)piperidin-1-yl)pyridin-3-yl)pyrazolo[1,5-a]pyrimidine-3-carboxamide], the “Cisplatin Sensitization Assay” value was “+++ (Cisplatin sensitization value of <0.02 μM)”.
`CN1CCC(S(=O)(=O)N2CCN(c3c(F)cncc3NC(=O)c3c(N)nn4cc(F)cnc34)CC2)CC1` [I-N-175, 2-amino-6-fluoro-N-(5-fluoro-4-(4-((1-methylpiperidin-4-yl)sulfonyl)piperazin-1-yl)pyridin-3-yl)pyrazolo[1,5-a]pyrimidine-3-carboxamide] was tested, and the “Cisplatin Sensitization Assay” value was “+++ (Cisplatin sensitization value of <0.02 μM)”.
`Nc1nn2cc(F)cnc2c1C(=O)Nc1cncc(F)c1N1CCN2C(=O)CCC[C@@H]2C1` [I-N-280, (R)-2-amino-6-fluoro-N-(5-fluoro-4-(6-oxohexahydro-1H-pyrido[1,2-a]pyrazin-2(6H)-yl)pyridin-3-yl)pyrazolo[1,5-a]pyrimidine-3-carboxamide] was tested, and the “Cisplatin Sensitization Assay” value was “+++ (Cisplatin sensitization value of <0.02 μM)”.
`Cc1nnc(C2CCN(c3ccncc3NC(=O)c3c(N)nn4cc(F)cnc34)CC2)o1` [I-N-265, 2-amino-6-fluoro-N-(4-(4-(5-methyl-1,3,4-oxadiazol-2-yl)piperidin-1-yl)pyridin-3-yl)pyrazolo[1,5-a]pyrimidine-3-carboxamide] was tested, and the “Cisplatin Sensitization Assay” value was “++ (Cisplatin sensitization value>0.02 μM but <0.2 μM)”.
`Nc1nn2cc(F)cnc2c1C(=O)Nc1cncc(F)c1N1CCC(S(=O)(=O)N2CCOCC2)CC1` [I-N-155, 2-amino-6-fluoro-N-(5-fluoro-4-(4-(morpholinosulfonyl)piperidin-1-yl)pyridin-3-yl)pyrazolo[1,5-a]pyrimidine-3-carboxamide] was tested, and the “Cisplatin Sensitization Assay” value was “+++ (Cisplatin sensitization value of <0.02 μM)”.
`Nc1nn2cc(F)cnc2c1C(=O)Nc1cncc(F)c1N1CCC(C(=O)N2CCN(C3CCC3)CC2)CC1` [I-G-35, 2-amino-N-(4-(4-(4-cyclobutylpiperazine-1-carbonyl)piperidin-1-yl)-5-fluoropyridin-3-yl)-6-fluoropyrazolo[1,5-a]pyrimidine-3-carboxamide] was tested, and the “Cisplatin Sensitization Assay” value was “+++ (Cisplatin sensitization value of <0.02 μM)”.
With `CN1CC(C(=O)N2CCN(c3c(F)cncc3NC(=O)c3c(N)nn4cc(F)cnc34)CC2)C1` [I-N-194] the “Cisplatin Sensitization Assay” value was “+++ (Cisplatin sensitization value of <0.02 μM)”.
For `Nc1nn2cc(F)cnc2c1C(=O)Nc1cnccc1-n1cnc(C(F)(F)F)c1` [I-N-27, 2-amino-6-fluoro-N-(4-(4-(trifluoromethyl)-1H-imidazol-1-yl)pyridin-3-yl)pyrazolo[1,5-a]pyrimidine-3-carboxamide], the “Cisplatin Sensitization Assay” value was “++ (Cisplatin sensitization value>0.02 μM but <0.2 μM)”.
`CN1CCN(c2ccncc2NC(=O)c2c(N)nn3cc(Cl)cnc23)CC1` [I-N-59, 2-amino-6-chloro-N-(4-(4-methylpiperazin-1-yl)pyridin-3-yl)pyrazolo[1,5-a]pyrimidine-3-carboxamide] was tested, and the “Cisplatin Sensitization Assay” value was “++ (Cisplatin sensitization value>0.02 μM but <0.2 μM)”.
`CN(C)CC1CCN(c2ccncc2NC(=O)c2c(N)nn3cc(Cl)cnc23)CC1` [I-N-45, 2-amino-6-chloro-N-(4-(4-((dimethylamino)methyl)piperidin-1-yl)pyridin-3-yl)pyrazolo[1,5-a]pyrimidine-3-carboxamide] was tested, and the “Cisplatin Sensitization Assay” value was “++ (Cisplatin sensitization value>0.02 μM but <0.2 μM)”.
With `COCCN1CCN(c2c(F)cncc2NC(=O)c2c(N)nn3cc(F)cnc23)CC1` [I-N-127, 2-amino-6-fluoro-N-(5-fluoro-4-(4-(2-methoxyethyl)piperazin-1-yl)pyridin-3-yl)pyrazolo[1,5-a]pyrimidine-3-carboxamide] the “Cisplatin Sensitization Assay” value was “+++ (Cisplatin sensitization value of <0.02 μM)”.
With `Cc1ccnnc1-c1ccncc1NC(=O)c1c(N)nn2cc(F)cnc12` [I-C-33, 2-amino-6-fluoro-N-(4-(4-methylpyridazin-3-yl)pyridin-3-yl)pyrazolo[1,5-a]pyrimidine-3-carboxamide] the “Cisplatin Sensitization Assay” value was “+ (Cisplatin sensitization value>0.2 μM but <5 μM)”.
With `CCOc1ccncc1NC(=O)c1c(N)nn2cc(CC#N)cnc12` [I-O-28, 2-amino-6-(cyanomethyl)-N-(4-ethoxypyridin-3-yl)pyrazolo[1,5-a]pyrimidine-3-carboxamide] the “Cisplatin Sensitization Assay” value was “+++ (Cisplatin sensitization value of <0.02 μM)”.
For `CN(C)C(=O)C1CCN(c2ccncc2NC(=O)c2c(N)nn3cc(F)cnc23)CC1` [I-G-2, 2-amino-N-(4-(4-(dimethylcarbamoyl)piperidin-1-yl)pyridin-3-yl)-6-fluoropyrazolo[1,5-a]pyrimidine-3-carboxamide], the “Cisplatin Sensitization Assay” value was “+++ (Cisplatin sensitization value of <0.02 μM)”.
For `Nc1nn2cc(F)cnc2c1C(=O)Nc1cnccc1-c1ccccc1` [I-C-5, 2-amino-6-fluoro-N-(4-phenylpyridin-3-yl)pyrazolo[1,5-a]pyrimidine-3-carboxamide], the “Cisplatin Sensitization Assay” value was “+++ (Cisplatin sensitization value of <0.02 μM)”.
For `Nc1nn2cc(F)cnc2c1C(=O)Nc1cnccc1OC1CCC(C(=O)O)CC1` (centres unmarked) [I-O-8, 4-((3-(2-amino-6-fluoropyrazolo[1,5-a]pyrimidine-3-carboxamido)pyridin-4-yl)oxy)cyclohexanecarboxylic acid], the “Cisplatin Sensitization Assay” value was “+ (Cisplatin sensitization value>0.2 μM but <5 μM)”.
`CNC1CN(C(=O)C2CCN(c3c(F)cncc3NC(=O)c3c(N)nn4cc(F)cnc34)CC2)C1` [I-G-34, 2-amino-6-fluoro-N-(5-fluoro-4-(4-(3-(methylamino)azetidine-1-carbonyl)piperidin-1-yl)pyridin-3-yl)pyrazolo[1,5-a]pyrimidine-3-carboxamide] was tested, and the “Cisplatin Sensitization Assay” value was “+++ (Cisplatin sensitization value of <0.02 μM)”.
With `CN1CC2(CCN(c3ccncc3NC(=O)c3c(N)nn4cc(F)cnc34)CC2)OC1=O` [I-N-216, 2-amino-6-fluoro-N-(4-(3-methyl-2-oxo-1-oxa-3,8-diazaspiro[4.5]decan-8-yl)pyridin-3-yl)pyrazolo[1,5-a]pyrimidine-3-carboxamide] the “Cisplatin Sensitization Assay” value was “+++ (Cisplatin sensitization value of <0.02 μM)”.
In the case of `Nc1nn2cc(Cl)cnc2c1C(=O)Nc1cnccc1N1CCN(C2COC2)CC1` [I-N-58, 2-amino-6-chloro-N-(4-(4-(oxetan-3-yl)piperazin-1-yl)pyridin-3-yl)pyrazolo[1,5-a]pyrimidine-3-carboxamide], the “Cisplatin Sensitization Assay” value is reported as “++ (Cisplatin sensitization value>0.02 μM but <0.2 μM)”.
In the case of `CC1(O)CCN(c2ccncc2NC(=O)c2c(N)nn3cc(Cl)cnc23)CC1` [I-N-66, 2-amino-6-chloro-N-(4-(4-hydroxy-4-methylpiperidin-1-yl)pyridin-3-yl)pyrazolo[1,5-a]pyrimidine-3-carboxamide], the “Cisplatin Sensitization Assay” value is reported as “+++ (Cisplatin sensitization value of <0.02 μM)”.
In the case of `COC1CN(C(=O)C2CCN(c3c(F)cncc3NC(=O)c3c(N)nn4cc(F)cnc34)CC2)C1` [I-G-21, 2-amino-6-fluoro-N-(5-fluoro-4-(4-(3-methoxyazetidine-1-carbonyl)piperidin-1-yl)pyridin-3-yl)pyrazolo[1,5-a]pyrimidine-3-carboxamide], the “Cisplatin Sensitization Assay” value is reported as “+++ (Cisplatin sensitization value of <0.02 μM)”.
With `Nc1nn2cc(Cl)cnc2c1C(=O)Nc1cnccc1O[C@H]1C[C@@]2(CCN2)C1` [I-O-79, N-(4-((4r,6s)-1-azaspiro[3.3]heptan-6-yloxy)pyridin-3-yl)-2-amino-6-chloropyrazolo[1,5-a]pyrimidine-3-carboxamide] the “Cisplatin Sensitization Assay” value was “++ (Cisplatin sensitization value>0.02 μM but <0.2 μM)”.
With `CN1CC2CN(c3c(Cl)cncc3NC(=O)c3c(N)nn4cc(F)cnc34)CC2C1` (centres unmarked) [I-N-286, 2-amino-N-(5-chloro-4-(5-methylhexahydropyrrolo[3,4-c]pyrrol-2(1H)-yl)pyridin-3-yl)-6-fluoropyrazolo[1,5-a]pyrimidine-3-carboxamide] the “Cisplatin Sensitization Assay” value was “++ (Cisplatin sensitization value>0.02 μM but <0.2 μM)”.
`CN1CCN(c2c(NC(=O)c3c(N)nn4cc(F)cnc34)cncc2C(F)F)CC1` [I-N-111, 2-amino-N-(5-(difluoromethyl)-4-(4-methylpiperazin-1-yl)pyridin-3-yl)-6-fluoropyrazolo[1,5-a]pyrimidine-3-carboxamide] was tested, and the “Cisplatin Sensitization Assay” value was “++ (Cisplatin sensitization value>0.02 μM but <0.2 μM)”.
